Read-outs that look alike come from different tables or passages of the source. Starred links: 1 amine or outer side, 2 acyl side, 3 side chain; linkers in the order of their positions; H or OH if unused. Non-standard residues stand in square brackets, D forms with d. Residues, ends and D or L forms follow the SMILES beside them. Groups on a side chain read outwards from the residue. *: point of attachment. C20 diacid = O=C(O)CCCCCCCCCCCCCCCCCCC(=O)*; γGlu = O=C(O)[C@H](CCC(=O)[*:2])N[*:1]; NMeI = CC[C@H](C)[C@H](NC)C(=O)O; Nle = CCCC[C@H](N)C(=O)O; AEEA = NCCOCCOCC(=O)O; Aib = CC(C)(N)C(=O)O
Legend:
hCRHR1 = biological target: T1, hCRHR1 (Homo sapiens, UniProt P34998); test: HTRF cAMP assay, determination of hCRHR1 potency (peptide libraries 5 conc., purified peptides 11 conc.); assay type: cell-based
T1 sequence (P34998 24-415): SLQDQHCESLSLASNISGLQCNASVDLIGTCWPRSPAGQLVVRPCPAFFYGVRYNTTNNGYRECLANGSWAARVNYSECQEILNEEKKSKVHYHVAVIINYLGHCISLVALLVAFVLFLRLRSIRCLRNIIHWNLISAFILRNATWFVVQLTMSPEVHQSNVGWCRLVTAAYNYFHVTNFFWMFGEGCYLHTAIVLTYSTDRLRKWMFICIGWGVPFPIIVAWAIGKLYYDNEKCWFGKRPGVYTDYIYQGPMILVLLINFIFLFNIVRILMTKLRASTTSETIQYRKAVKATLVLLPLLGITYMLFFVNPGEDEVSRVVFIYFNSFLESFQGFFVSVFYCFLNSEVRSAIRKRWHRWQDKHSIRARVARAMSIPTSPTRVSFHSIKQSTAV
How it was run: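 CHO-K1 cells stably expressing human CRHR1, thawed from frozen stocks just before use, were stimulated in suspension with agonist peptides. cAMP was measured by HTRF competitive immunoassay (cryptate anti-cAMP antibody vs d2-cAMP).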

[1] = pH 7.5
Description: Solubility was tested in the following vehicles: 100 mM phosphate buffer facilitating a target pH of 6.5, 7.0, and 7.5. Samples were directly dissolved in Mini-UniPrep Syringeless Filter 0.45 µm unit (Whatman). For the desired concentration, such as a concentration of 4000 µM (approximately 20 mg/mL), 1600 nmol peptide was dissolved in 400 µL vehicle. Samples were incubated for at least 1 h at room temperature on a rocking table. The pH was measured and adjusted. Samples were left on the rocking table for an additional hour before a second pH measurement and adjustment. Visual inspection was performed and noted before the filter was pushed. The concentration of peptide in the filtrate was determined using CAD (Charged Aerosol Detection), double determination was done for each sample. The measured concentration was reported in µM. Furthermore, the pH of the filtrate was measured and reported. Peptides with a measured concentration within +/-20% of target concentration are considered fully soluble.
Compounds were dissolved to a nominal concentration of 4000 µM and analysed as described above. Samples with phenol contained 5.0 mg/ml phenol.

[2] = Thioflavin T fibril formation assay of purified peptides; assay type: physicochemical; settings: pH 7.5, ThT assay
Description: Thioflavin T fibril formation assay: Peptides were dissolved as 267 µM in 50 mM phosphate buffer pH 7.5 for 2 h at room temperature on a rocking table. The samples were then divided into three replicates of 80 µl/well and mixed with 2 µl/well Thioflavin T (ThT)to a final concentration of 4 µM ThT in a black 384 well microplate with a clear bottom (Greiner #781096). The plate was inserted in a CLARIOstar Plus microplate reader (BMG Labtech) and fibril formation was measured as an increase in fluorescence emission at 480 nm (excitation at 450 nm) during 96 h at 40°C with cycles of 5 min rest and 5 min linearshaking at700 rpm.
Compounds were dissolved to 200 µM (ca 1.0 mg/ml) in 50 mM phosphate buffer with preparation and ThT assay performed as described in the "General procedure for determination of fibril formation of peptides." above. Furthermore, samples were adjusted to pH values as indicated below. Additional co-formulations of compounds with semaglutide were prepared by dissolving compounds to 200 µM in commercially available semaglutide drug product (Ozempic®); these co-formulations were adjusted to pH 7.4.

hCRHR2 = biological target: T2, hCRHR2 (Homo sapiens, UniProt Q13324); test: HTRF cAMP assay, determination of hCRHR2 potency (peptide libraries 5 conc., purified peptides 11 conc.); assay type: cell-based
T2 sequence (Q13324 1-411): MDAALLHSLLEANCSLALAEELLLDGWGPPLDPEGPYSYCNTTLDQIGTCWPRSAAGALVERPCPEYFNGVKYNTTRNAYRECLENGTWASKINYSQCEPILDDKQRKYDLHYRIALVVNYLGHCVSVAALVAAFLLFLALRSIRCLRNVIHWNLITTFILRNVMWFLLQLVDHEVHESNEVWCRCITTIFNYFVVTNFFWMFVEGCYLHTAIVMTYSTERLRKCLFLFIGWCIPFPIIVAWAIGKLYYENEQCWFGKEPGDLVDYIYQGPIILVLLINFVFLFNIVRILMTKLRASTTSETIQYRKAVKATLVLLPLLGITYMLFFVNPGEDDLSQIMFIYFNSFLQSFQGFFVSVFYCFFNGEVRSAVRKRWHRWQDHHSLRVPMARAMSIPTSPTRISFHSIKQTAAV
How it was run: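 CHO-K1 cells stably expressing human CRHR2 were thawed from frozen stocks immediately before use and assayed in suspension with agonist peptides. cAMP was measured by time-resolved FRET in a competitive immunoassay between cryptate-labelled anti-cAMP antibody and d2-labelled cAMP. EC50 values came from nonlinear regression, sigmoid variable-slope fit.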

[3] = Table 4, library peptides having X^38 = Nle, read-out: hCRHR1 pEC50 (converted)
[4] = Table 4, library peptides having X^38 = Nle, read-out: hCRHR2 pEC50 (converted)

CC[C@H](C)[C@H](N)C(=O)N[C@H](C(=O)N[C@@H](CC(C)C)C(=O)N[C@@H](CO)C(=O)N[C@@H](CC(C)C)C(=O)N[C@@H](CC(=O)O)C(=O)N[C@H](C(=O)N1CCC[C@H]1C(=O)N[C@H](C(=O)NCC(=O)N[C@@H](CC(C)C)C(=O)N[C@@H](CC(C)C)C(=O)N[C@@H](CCC(N)=O)C(=O)N[C@H](C(=O)N[C@@H](CC(C)C)C(=O)N[C@@H](CC(C)C)C(=O)N[C@@H](CCC(=O)O)C(=O)N[C@@H](CCC(N)=O)C(=O)N[C@@H](C)C(=O)N[C@@H](CCCNC(=N)N)C(=O)N[C@@H](C)C(=O)N[C@@H](CCCNC(=N)N)C(=O)N[C@@H](C)C(=O)N[C@@H](C)C(=O)N[C@@H](CCCNC(=N)N)C(=O)N[C@@H](CCC(=O)O)C(=O)N[C@@H](CCC(N)=O)C(=O)N[C@@H](C)C(=O)N[C@@H](CCCCNC(=O)COCCOCCNC(=O)COCCOCCNC(=O)CC[C@H](NC(=O)CC[C@H](NC(=O)CCCCCCCCCCCCCCCCCCC(=O)O)C(=O)O)C(=O)O)C(=O)N[C@H](C(=O)N[C@@H](CC(N)=O)C(=O)N[C@@H](C)C(=O)N[C@@H](CCCNC(=N)N)C(=O)N[C@H](C(=O)N[C@@H](CC(C)C)C(=O)N[C@@H](C)C(=O)N[C@@H](CCCNC(=N)N)C(=O)N[C@H](C(N)=O)C(C)C)[C@@H](C)CC)[C@@H](C)O)[C@@H](C)CC)[C@@H](C)CC)C(C)C)C(C)C [SEQ ID NO: 2] (H-IVLSLDVPIGLLQILLEQARARAAREQAK([AEEA-AEEA-γGlu-γGlu-C20 diacid])TNARILARV-NH2)
EC50 (hCRHR1; purified peptides, CHO-K1 cells stably expressing hCRHR1, cAMP HTRF, read-out: hCRHR1 EC50): > 5000 nM
Solubility pH 7.5, target conc. =5 mg/mL (measured mg/mL) [1]: 0.016 mg/mL
Fibrillation (pH 7.5) [2]: No
Selectivity ratio (hCRHR1/ hCRHR2) (hCRHR2; hCRHR1-EC50/hCRHR2-EC50): >2778
EC50 (hCRHR2; purified peptides, CHO-K1 cells stably expressing hCRHR2, cAMP HTRF, read-out: hCRHR2 EC50): 1.8 nM

CCCC[C@H](NC(=O)[C@@H](NC(=O)[C@H](CCC(=O)O)NC(=O)[C@H](C)NC(=O)[C@H](CC(N)=O)NC(=O)C(C)(C)NC(=O)[C@H](CCCCNC(=O)COCCOCCNC(=O)COCCOCCNC(=O)CC[C@H](NC(=O)CC[C@H](NC(=O)CCCCCCCCCCCCCCCCCCC(=O)O)C(=O)O)C(=O)O)NC(=O)[C@H](C)NC(=O)[C@H](CCC(N)=O)NC(=O)[C@H](CCC(=O)O)NC(=O)[C@H](CCCNC(=N)N)NC(=O)[C@H](C)NC(=O)[C@H](C)NC(=O)[C@H](CCCNC(=N)N)NC(=O)[C@H](C)NC(=O)[C@H](CCCNC(=N)N)NC(=O)[C@H](C)NC(=O)[C@H](CCC(N)=O)NC(=O)[C@H](Cc1c[nH]cn1)NC(=O)[C@H](CC(C)C)NC(=O)[C@H](CC(C)C)NC(=O)[C@@H](NC(=O)[C@H](CCC(N)=O)NC(=O)[C@H](CC(C)C)NC(=O)[C@H](CC(C)C)NC(=O)CNC(=O)[C@@H](NC(=O)[C@@H]1CCCN1C(=O)[C@@H](NC(=O)[C@H](CC(=O)O)NC(=O)[C@H](CC(C)C)NC(=O)[C@H](CO)NC(=O)[C@H](CC(C)C)NC(=O)[C@@H](NC(=O)[C@@H](NC)[C@@H](C)CC)C(C)C)C(C)C)[C@@H](C)CC)[C@@H](C)CC)[C@@H](C)CC)C(=O)N[C@@H](C)C(=O)N[C@@H](CCC(=O)O)C(=O)N[C@H](C(N)=O)C(C)C [compound 126] (H-[NMeI]VLSLDVPIGLLQILLHQARARAAREQAK([AEEA-AEEA-γGlu-γGlu-C20 diacid])[Aib]NAEI[Nle]AEV-NH2)
EC50 (hCRHR1; [3]): 794 nM
EC50 (hCRHR2; [4]): 0.01 nM

CCCC[C@H](NC(=O)[C@@H](NC(=O)[C@H](CCC(=O)O)NC(=O)[C@H](C)NC(=O)[C@H](CC(N)=O)NC(=O)C(C)(C)NC(=O)[C@H](CCCCNC(=O)COCCOCCNC(=O)COCCOCCNC(=O)CC[C@H](NC(=O)CC[C@H](NC(=O)CCCCCCCCCCCCCCCCCCC(=O)O)C(=O)O)C(=O)O)NC(=O)[C@H](C)NC(=O)[C@H](CCC(N)=O)NC(=O)[C@H](CCC(=O)O)NC(=O)[C@H](CCCNC(=N)N)NC(=O)[C@H](C)NC(=O)[C@H](C)NC(=O)[C@H](CCCNC(=N)N)NC(=O)[C@H](C)NC(=O)[C@H](CCCNC(=N)N)NC(=O)[C@H](C)NC(=O)[C@H](CCC(N)=O)NC(=O)[C@@H](NC(=O)[C@H](CC(C)C)NC(=O)[C@H](CC(C)C)NC(=O)[C@@H](NC(=O)[C@H](CCC(N)=O)NC(=O)[C@H](CC(C)C)NC(=O)[C@H](CC(C)C)NC(=O)CNC(=O)[C@@H](NC(=O)[C@@H]1CCCN1C(=O)[C@@H](NC(=O)[C@H](CC(=O)O)NC(=O)[C@H](CC(C)C)NC(=O)[C@H](CO)NC(=O)[C@H](CC(C)C)NC(=O)[C@@H](NC(=O)[C@@H](NC)[C@@H](C)CC)C(C)C)C(C)C)[C@@H](C)CC)[C@@H](C)CC)[C@@H](C)O)[C@@H](C)CC)C(=O)N[C@@H](C)C(=O)N[C@@H](CCC(=O)O)C(=O)N[C@H](C(N)=O)C(C)C [compound 134] (H-[NMeI]VLSLDVPIGLLQILLTQARARAAREQAK([AEEA-AEEA-γGlu-γGlu-C20 diacid])[Aib]NAEI[Nle]AEV-NH2)
EC50 (hCRHR1; [3]): 794 nM
EC50 (hCRHR2; [4]): 0.00794 nM

CCCC[C@H](NC(=O)[C@@H](NC(=O)[C@H](CCC(=O)O)NC(=O)[C@H](C)NC(=O)[C@H](CC(N)=O)NC(=O)[C@@H](NC(=O)[C@H](CCCCNC(=O)COCCOCCNC(=O)COCCOCCNC(=O)CC[C@H](NC(=O)CC[C@H](NC(=O)CCCCCCCCCCCCCCCCCCC(=O)O)C(=O)O)C(=O)O)NC(=O)[C@H](C)NC(=O)[C@H](CCC(N)=O)NC(=O)[C@H](CCC(=O)O)NC(=O)[C@H](CCCNC(=N)N)NC(=O)[C@H](CCC(N)=O)NC(=O)[C@H](C)NC(=O)[C@H](CCCNC(=N)N)NC(=O)[C@H](C)NC(=O)[C@H](CCCNC(=N)N)NC(=O)[C@H](C)NC(=O)[C@H](CCC(N)=O)NC(=O)[C@H](CCC(=O)O)NC(=O)[C@H](CC(C)C)NC(=O)[C@H](CC(C)C)NC(=O)[C@@H](NC(=O)[C@H](CCC(N)=O)NC(=O)[C@H](CC(C)C)NC(=O)[C@H](CC(C)C)NC(=O)CNC(=O)[C@@H](NC(=O)[C@@H]1CCCN1C(=O)[C@@H](NC(=O)[C@H](CC(=O)O)NC(=O)[C@H](CC(C)C)NC(=O)[C@H](CO)NC(=O)[C@H](CC(C)C)NC(=O)[C@@H](NC(=O)[C@@H](N)[C@@H](C)CC)C(C)C)C(C)C)[C@@H](C)CC)[C@@H](C)CC)[C@@H](C)O)[C@@H](C)CC)C(=O)N[C@@H](C)C(=O)N[C@@H](CCC(=O)O)C(=O)N[C@H](C(N)=O)C(C)C [compound 57] (H-IVLSLDVPIGLLQILLEQARARAQREQAK([AEEA-AEEA-γGlu-γGlu-C20 diacid])TNAEI[Nle]AEV-NH2)
EC50 (hCRHR1; library peptides, matched molecular pairs L vs Nle in position X^38, read-out: Potency hCRHR1 pEC50 (converted)): 63.1 nM
EC50 (hCRHR2; library peptides, matched molecular pairs L vs Nle in position X^38, read-out: Potency hCRHR2 pEC50 (converted)): 0.126 nM

Source: patent EP4810052A2, “HCRHR2 SELECTIVE POLYPEPTIDES” (Gubra A/S, priority 2023, dated 2026)
